{
  "source": "patent US11959086B2",
  "about": "“Dual transit peptides for targeting polypeptides” (BASF AGRO B.V., priority 2016, dated 2024)",
  "test_in_all_cases": "Herbicide injury evaluation of Arabidopsis plants, greenhouse",
  "type_in_all_cases": "in vivo",
  "key": {"[1]": {"system": "Wildtype/non-transgenic Arabidopsis thaliana", "settings": "scale 0-100"}, "[2]": {"system": "transgenic Arabidopsis thaliana, transgene SEQ ID NO 117", "settings": "Table 3, scale 0-100"}, "[3]": {"system": "transgenic Arabidopsis thaliana, transgene SEQ ID NO 118", "settings": "scale 0-100"}, "[4]": {"system": "transgenic Arabidopsis thaliana, transgene SEQ ID NO 121", "settings": "Table 3, scale 0-100"}, "[5]": {"system": "transgenic Arabidopsis thaliana, transgene SEQ ID NO 128", "settings": "Table 3, scale 0-100"}, "[6]": {"system": "transgenic Arabidopsis thaliana, transgene SEQ ID NO 120", "settings": "Table 4, scale 0-100"}},
  "data": [
    {"compound": "C#CCN1C(=O)COc2cc(F)c(N3C(=O)C4=C(CCCC4)C3=O)cc21", "note": "[Flumioxazin, flumioxazin]", "values": [
      {"measurement": "Herbicide injury evaluation 14 days after herbicide treatment", "setting": "[1]; Table 3, 140 g ai/ha + 1% MSO", "value": 100},
      {"measurement": "Herbicide injury evaluation 14 days after herbicide treatment", "setting": "[1]; Table 3, 280 g ai/ha + 1% MSO", "value": 100},
      {"measurement": "Herbicide injury evaluation 14 days after herbicide treatment", "setting": "[1]; Table 3, 420 g ai/ha + 1% MSO", "value": 100},
      {"measurement": "Herbicide injury evaluation 14 days after herbicide treatment", "setting": "[1]; Table 4, 140 g ai/ha + 1% MSO", "value": 100},
      {"measurement": "Herbicide injury evaluation 14 days after herbicide treatment", "setting": "[1]; Table 4, 280 g ai/ha + 1% MSO", "value": 100},
      {"measurement": "Herbicide injury evaluation 14 days after herbicide treatment", "setting": "[1]; Table 4, 420 g ai/ha + 1% MSO", "value": 100},
      {"measurement": "Herbicide injury evaluation 14 days after herbicide treatment", "setting": "[2]; SEQ ID NO 117 C, 140 g ai/ha + 1% MSO", "value": 94},
      {"measurement": "Herbicide injury evaluation 14 days after herbicide treatment", "setting": "[2]; SEQ ID NO 117 C, 280 g ai/ha + 1% MSO", "value": 95},
      {"measurement": "Herbicide injury evaluation 14 days after herbicide treatment", "setting": "[2]; SEQ ID NO 117 C, 420 g ai/ha + 1% MSO", "value": 95},
      {"measurement": "Herbicide injury evaluation 14 days after herbicide treatment", "setting": "[2]; SEQ ID NO 117 I, 140 g ai/ha + 1% MSO", "value": 90},
      {"measurement": "Herbicide injury evaluation 14 days after herbicide treatment", "setting": "[2]; SEQ ID NO 117 I, 280 g ai/ha + 1% MSO", "value": 94},
      {"measurement": "Herbicide injury evaluation 14 days after herbicide treatment", "setting": "[2]; SEQ ID NO 117 I, 420 g ai/ha + 1% MSO", "value": 97},
      {"measurement": "Herbicide injury evaluation 14 days after herbicide treatment", "setting": "[3]; Table 3, SEQ ID NO 118 Q, 140 g ai/ha + 1% MSO", "value": 48},
      {"measurement": "Herbicide injury evaluation 14 days after herbicide treatment", "setting": "[3]; Table 3, SEQ ID NO 118 Q, 280 g ai/ha + 1% MSO", "value": 60},
      {"measurement": "Herbicide injury evaluation 14 days after herbicide treatment", "setting": "[3]; Table 3, SEQ ID NO 118 Q, 420 g ai/ha + 1% MSO", "value": 60},
      {"measurement": "Herbicide injury evaluation 14 days after herbicide treatment", "setting": "[3]; Table 3, SEQ ID NO 118 R, 140 g ai/ha + 1% MSO", "value": 23},
      {"measurement": "Herbicide injury evaluation 14 days after herbicide treatment", "setting": "[3]; Table 3, SEQ ID NO 118 R, 280 g ai/ha + 1% MSO", "value": 28},
      {"measurement": "Herbicide injury evaluation 14 days after herbicide treatment", "setting": "[3]; Table 3, SEQ ID NO 118 R, 420 g ai/ha + 1% MSO", "value": 28},
      {"measurement": "Herbicide injury evaluation 14 days after herbicide treatment", "setting": "[3]; Table 4, SEQ ID NO 118 Q, 140 g ai/ha + 1% MSO", "value": 60},
      {"measurement": "Herbicide injury evaluation 14 days after herbicide treatment", "setting": "[3]; Table 4, SEQ ID NO 118 Q, 280 g ai/ha + 1% MSO", "value": 65},
      {"measurement": "Herbicide injury evaluation 14 days after herbicide treatment", "setting": "[3]; Table 4, SEQ ID NO 118 Q, 420 g ai/ha + 1% MSO", "value": 70},
      {"measurement": "Herbicide injury evaluation 14 days after herbicide treatment", "setting": "[3]; Table 4, SEQ ID NO 118 R, 140 g ai/ha + 1% MSO", "value": 63},
      {"measurement": "Herbicide injury evaluation 14 days after herbicide treatment", "setting": "[3]; Table 4, SEQ ID NO 118 R, 280 g ai/ha + 1% MSO", "value": 60},
      {"measurement": "Herbicide injury evaluation 14 days after herbicide treatment", "setting": "[3]; Table 4, SEQ ID NO 118 R, 420 g ai/ha + 1% MSO", "value": 35},
      {"measurement": "Herbicide injury evaluation 14 days after herbicide treatment", "setting": "[4]; SEQ ID NO 121 G, 140 g ai/ha + 1% MSO", "value": 100},
      {"measurement": "Herbicide injury evaluation 14 days after herbicide treatment", "setting": "[4]; SEQ ID NO 121 G, 280 g ai/ha + 1% MSO", "value": 100},
      {"measurement": "Herbicide injury evaluation 14 days after herbicide treatment", "setting": "[4]; SEQ ID NO 121 G, 420 g ai/ha + 1% MSO", "value": 100},
      {"measurement": "Herbicide injury evaluation 14 days after herbicide treatment", "setting": "[4]; SEQ ID NO 121 H, 140 g ai/ha + 1% MSO", "value": 100},
      {"measurement": "Herbicide injury evaluation 14 days after herbicide treatment", "setting": "[4]; SEQ ID NO 121 H, 280 g ai/ha + 1% MSO", "value": 100},
      {"measurement": "Herbicide injury evaluation 14 days after herbicide treatment", "setting": "[4]; SEQ ID NO 121 H, 420 g ai/ha + 1% MSO", "value": 100},
      {"measurement": "Herbicide injury evaluation 14 days after herbicide treatment", "setting": "[5]; SEQ ID NO 128 D, 140 g ai/ha + 1% MSO", "value": 100},
      {"measurement": "Herbicide injury evaluation 14 days after herbicide treatment", "setting": "[5]; SEQ ID NO 128 D, 280 g ai/ha + 1% MSO", "value": 94},
      {"measurement": "Herbicide injury evaluation 14 days after herbicide treatment", "setting": "[5]; SEQ ID NO 128 D, 420 g ai/ha + 1% MSO", "value": 93},
      {"measurement": "Herbicide injury evaluation 14 days after herbicide treatment", "setting": "[5]; SEQ ID NO 128 E, 140 g ai/ha + 1% MSO", "value": 93},
      {"measurement": "Herbicide injury evaluation 14 days after herbicide treatment", "setting": "[5]; SEQ ID NO 128 E, 280 g ai/ha + 1% MSO", "value": 99},
      {"measurement": "Herbicide injury evaluation 14 days after herbicide treatment", "setting": "[5]; SEQ ID NO 128 E, 420 g ai/ha + 1% MSO", "value": 100},
      {"measurement": "Herbicide injury evaluation 14 days after herbicide treatment", "setting": "[6]; SEQ ID NO 120 J, 140 g ai/ha + 1% MSO", "value": 95},
      {"measurement": "Herbicide injury evaluation 14 days after herbicide treatment", "setting": "[6]; SEQ ID NO 120 J, 280 g ai/ha + 1% MSO", "value": 85},
      {"measurement": "Herbicide injury evaluation 14 days after herbicide treatment", "setting": "[6]; SEQ ID NO 120 J, 420 g ai/ha + 1% MSO", "value": 95},
      {"measurement": "Herbicide injury evaluation 14 days after herbicide treatment", "setting": "[6]; SEQ ID NO 120 M, 140 g ai/ha + 1% MSO", "value": 75},
      {"measurement": "Herbicide injury evaluation 14 days after herbicide treatment", "setting": "[6]; SEQ ID NO 120 M, 280 g ai/ha + 1% MSO", "value": 98},
      {"measurement": "Herbicide injury evaluation 14 days after herbicide treatment", "setting": "[6]; SEQ ID NO 120 M, 420 g ai/ha + 1% MSO", "value": 98}
    ]}
  ]
}
